This is an account of results in ChEMBL document CHEMBL3988442, “University of Dundee, Small-Polar-MMV Screening Library” (2021).

Bounds are passed on as bounds.

A short description of test [1]: microbe, parasite or virus in culture. To be noted: Mycobacterium tuberculosis, 96 h, read-out: pIC50 (converted).
Test [2] is described as follows: microbe, parasite or virus in culture. To be noted: Mycobacterium tuberculosis, 72 h, read-out: pIC50 (converted).

For `COc1ccc(CCN)c(OC)c1OC`, the IC50 in test [1] is 55.6 µM; in test [2], 36.1 µM.

Take `CN(Cc1ccco1)C(=O)c1cccc(C#N)c1`: the IC50 in test [1] and in test [2] was more than 501 µM throughout.

For the molecule `CC(=O)c1ccccc1NC(=O)CN1CC[C@H](N)C1`, the values for the IC50 in test [1] and in test [2] were more than 501 µM and 158 µM, respectively.

With `CCCOc1cc(C)ccc1NC(=O)Cn1cnnn1`, the IC50 in test [1] is more than 501 µM; in test [2] it was 273 µM.

`NCc1ccncc1OCC(F)(F)F`: the IC50 in test [1] and in test [2] was more than 501 µM throughout.

With `CN(C)S(=O)(=O)c1cccc(CN2CCCC2)c1`, the IC50 in test [1] and in test [2] was more than 501 µM each time.

With `Nc1cnn(Cc2ccccn2)c1`, the values for the IC50 in test [1] and in test [2] were more than 501 µM and 206 µM, respectively.

Consider `Cc1ccc(C(CN)N2CCCC2)o1` (centres undefined), for which the IC50 was more than 501 µM in test [1] and 101 µM in test [2].

With `CC(=O)c1ccc(Cl)c(S(=O)(=O)NC(CN)C2CC2)c1` (centres undefined), the IC50 in test [1] is 111 µM; in test [2] it was 116 µM.

Turning to `CC(C)C(NCC(N)=O)c1ccc(F)cc1` (centres undefined), the IC50 in test [1] and in test [2] was more than 501 µM throughout.

Take `CCN(CCO)Cc1cc(-c2cccs2)on1`: the figures for the IC50 in test [1] and in test [2] were more than 501 µM and 145 µM, respectively.

In the case of `COc1ncccc1C(=O)NCCc1cccs1`, the IC50 in test [1] was 285 µM; in test [2] it was 347 µM.

`COCc1nn(Cc2cccc3cccnc23)c(=O)o1`: the IC50 is 51.6 µM in test [1] and 16.8 µM in test [2].

In the case of `NC1CCN(c2ccc(C(F)(F)F)cn2)CC1`, the IC50 in test [1] was 139 µM; in test [2], 91.6 µM.

On to `COC(CNC(=O)N1CCSCC1)c1ccc(F)cc1` (centres undefined), for which the IC50 in test [1] and in test [2] was more than 501 µM throughout.

For the molecule `OCCCn1nnc(-c2ccccc2)n1`, the IC50 was 120 µM in test [1] and 158 µM in test [2].

As for `CC(C)(C)OCCOc1ccc(OCCO)cc1`, the results for the IC50 in test [1] and in test [2] were 161 µM and 101 µM, respectively.

With `Cc1ccccc1OCC(O)CN1CCC[C@@H]1CO` (some centres undefined), the IC50 is more than 501 µM in test [1] and 280 µM in test [2].

With `COc1cc(F)cc(NCC(=O)NCc2ccco2)c1`, the figures for the IC50 in test [1] and in test [2] were 32.7 µM and 35 µM, respectively.

In the case of `COc1cccc(N2CCC(CN)C2)c1` (centres undefined), the IC50 in test [1] is 290 µM; in test [2], 69.7 µM.

Consider `Cc1cnn(CCNCc2ccc3c(c2)OCCO3)c1`, for which the IC50 was 211 µM in test [1] and 127 µM in test [2].

As for `NC(=O)CC1CCCC1`, the IC50 in test [1] and in test [2] was more than 501 µM in each case.

Take `CC(N)CCc1ccc2c(c1)OCO2` (centres undefined): the IC50 is 274 µM in test [1] and 185 µM in test [2].

On to `OCC(O)CSCCc1ccccc1Cl` (centres undefined), for which the IC50 in test [1] is 473 µM; in test [2] it was 136 µM.

On to `NCCCN1CCN(c2ccccc2F)CC1`, for which the IC50 in test [1] and in test [2] was more than 501 µM each time.

In the case of `CCS(=O)(=O)NCCOc1ccc2c(c1)OCO2`, the IC50 was 204 µM in test [1] and 230 µM in test [2].

`OCCCN1CCC(=Cc2ccccc2)CC1`: the IC50 in test [1] is 250 µM; in test [2] it was 277 µM.

For `Fc1ccc(CSc2nnnn2CC2CCCO2)cc1` (centres undefined), the IC50 in test [1] is 80.8 µM; in test [2], 39 µM.

`COCc1ccc(C(=O)NCc2cccc(F)c2)o1`: the IC50 was 35.8 µM in test [1] and 59.4 µM in test [2].

For `COc1cccc(SCC(=O)N2CCOC(C)C2)c1` (centres undefined), the IC50 in test [1] and in test [2] was more than 501 µM in each case.

As to `COCCCNC(=O)C1=Cc2ccccc2OC1`, the IC50 in test [1] was 115 µM; in test [2] it was 119 µM.

On to `O=C(NCCN1CCCC1)c1csc(-c2ccco2)n1`, for which the IC50 in test [1] was 224 µM; in test [2], 201 µM.

On to `CN(C)c1cc(CNc2ccc(C#N)cn2)ccn1`, for which the IC50 is 453 µM in test [1] and 205 µM in test [2].

Regarding `CCS(=O)(=O)NCCSc1nc2cc(F)c(F)cc2[nH]1`, the IC50 in test [1] is 448 µM; in test [2], 468 µM.

Consider `CC(C)NC(=O)Nc1cccc(S(=O)(=O)C(F)F)c1`, for which the values for the IC50 in test [1] and in test [2] were 219 µM and 264 µM, respectively.

As for `N#Cc1c(F)cccc1NCCSCCCO`, the results for the IC50 in test [1] and in test [2] were 67.1 µM and 102 µM, respectively.

Take `c1ccc(NC2CCN(C3CCCC3)C2)nc1` (centres undefined): the IC50 in test [1] and in test [2] was more than 501 µM throughout.

As for `CCC(=O)c1cccc(S(=O)(=O)NC(CN)C2CC2)c1` (centres undefined), the IC50 in test [1] and in test [2] was more than 501 µM throughout.

For the molecule `O=S1(=O)CCCN(Cc2ccc(Br)c(F)c2)CC1`, the IC50 is 242 µM in test [1] and 386 µM in test [2].

As for `Cc1csc(CNC(=O)c2ccco2)n1`, the IC50 in test [1] and in test [2] was more than 501 µM in each case.

Consider `OCCOCCNCC(O)COCc1ccccc1Cl` (centres undefined), for which the IC50 in test [1] and in test [2] was more than 501 µM throughout.

Take `Cc1ccc(NC(=O)NCCS(=O)(=O)N(C)C)cc1Cl`: the IC50 is 401 µM in test [1] and 205 µM in test [2].

For the molecule `CCCOc1ccc(CNC(=O)c2cc[nH]n2)cn1`, the IC50 in test [1] is more than 501 µM; in test [2] it was 114 µM.

As to `CCNC1=NN=C(c2ccc3c(c2)OCCCO3)CS1`, the IC50 is more than 501 µM in test [1] and 274 µM in test [2].

Regarding `Brc1cncc(NCc2ncc[nH]2)c1`, the IC50 is more than 501 µM in test [1] and 475 µM in test [2].

In the case of `CC(C)Sc1nnc(-c2cccnc2)o1`, the IC50 is 219 µM in test [1] and 8.8 µM in test [2].

In the case of `CCSCCOc1ccc(CO)nc1`, the results for the IC50 in test [1] and in test [2] were more than 501 µM and 216 µM, respectively.

With `CN1C(=O)c2ccc(C(=O)NC3CC3)cc2C1=O`, the IC50 in test [1] and in test [2] was more than 501 µM in each case.

Take `Cc1ncc(Cn2cc(F)ccc2=O)s1`: the IC50 in test [1] and in test [2] was more than 501 µM in each case.

For `CC(C)c1cccc(S(=O)(=O)NCCCN)c1`, the values for the IC50 in test [1] and in test [2] were more than 501 µM and 195 µM, respectively.

With `NS(=O)(=O)c1ccc(NC(=O)Cn2ccnc2)cc1`, the IC50 in test [1] and in test [2] was more than 501 µM throughout.

Take `Cc1cccc(N2CCN(CCCN)CC2)c1`: the IC50 in test [1] and in test [2] was more than 501 µM in each case.

For `COc1ccc(CCN)cc1F`, the IC50 in test [1] was 247 µM; in test [2] it was 304 µM.

Turning to `CNCCc1ccccc1OC`, the values for the IC50 in test [1] and in test [2] were 124 µM and 74.4 µM, respectively.

Take `COCCN(C)CCNC(=O)c1cc2ccccc2[nH]1`: the IC50 in test [1] and in test [2] was more than 501 µM throughout.

In the case of `Cc1nc(CNC(=O)c2cc(C3CC3)[nH]n2)cs1`, the IC50 in test [1] and in test [2] was more than 501 µM each time.

Take `CC(C)CCNC(=O)Cn1c(=O)oc2ccccc21`: the IC50 was 274 µM in test [1] and 401 µM in test [2].

With `CCOC(=O)c1ccc(CN2CCOCC2)cn1`, the IC50 in test [1] and in test [2] was more than 501 µM in each case.

For the molecule `NCc1cccc(-c2nc(-c3ccncc3)no2)c1`, the IC50 was 286 µM in test [1] and more than 501 µM in test [2].

Take `CCNC1=NN=C(c2ccc(OC)c(F)c2)CS1`: the IC50 was 134 µM in test [1] and 137 µM in test [2].

Consider `CCCc1cc(CN(C)C(=O)c2cccs2)n[nH]1`, for which the IC50 in test [1] was 437 µM; in test [2], 293 µM.

On to `CCC(CC)C(CN)N(C)C` (centres undefined), for which the IC50 was 204 µM in test [1] and 78.1 µM in test [2].

In the case of `C=C(C)CN1CCC(NC(=O)N2CCSCC2)CC1`, the IC50 in test [1] and in test [2] was more than 501 µM each time.

Regarding `CN1N=C(C(=O)NCc2csc(Br)c2)CCC1=O`, the IC50 was 51 µM in test [1] and 147 µM in test [2].

For `COc1ccc(Br)c(CN)c1`, the IC50 in test [1] was 184 µM; in test [2], 116 µM.

Turning to `COc1ccc(CN2CCCNCC2)cc1`, the IC50 in test [1] is 163 µM; in test [2] it was 258 µM.

Consider `c1ccc(-c2noc(CN3CCCC3)n2)cc1`, for which the results for the IC50 in test [1] and in test [2] were 82.1 µM and 63.9 µM, respectively.

Consider `CN(CC(=O)N1CCOCC1)Cc1cc(Br)cs1`, for which the IC50 in test [1] was 55.2 µM; in test [2] it was 114 µM.

With `O=C(CSCc1ccc(Cl)s1)N1CCOCC1`, the IC50 was 286 µM in test [1] and 304 µM in test [2].

Take `Cc1noc(CNC(CCO)C(C)C)n1` (centres undefined): the IC50 in test [1] and in test [2] was more than 501 µM each time.

In the case of `Cc1cc(Br)cc(C(=O)NCc2nccc(N)n2)c1`, the IC50 in test [1] and in test [2] was more than 501 µM throughout.

As for `NCc1ccc(Cl)cn1`, the IC50 in test [1] was 249 µM; in test [2], 324 µM.

In the case of `Cc1ccc(C(=O)NCCNS(=O)(=O)C(C)C)cc1F`, the IC50 in test [1] is more than 501 µM; in test [2], 155 µM.

Take `CN(C)C(=O)CCN1CCCC1c1ccsc1` (centres undefined): the IC50 in test [1] was more than 501 µM; in test [2] it was 196 µM.

As to `COc1ccccc1CN1CCC(N)CC1`, the IC50 was more than 501 µM in test [1] and 130 µM in test [2].

In the case of `O=C(COCC(F)(F)F)NCc1cn2ccccc2n1`, the IC50 in test [1] was more than 501 µM; in test [2], 92.3 µM.

Regarding `NCCc1ccc(N2CCOCC2)c(F)c1`, the IC50 in test [1] was 263 µM; in test [2] it was 154 µM.

With `O=C(NC1CCCCC1)c1ccc(CO)cc1`, the IC50 in test [1] was 143 µM; in test [2] it was 161 µM.

On to `COc1ccc(C(O)CNC(=O)Nc2nncs2)cc1` (centres undefined), for which the IC50 in test [1] is 380 µM; in test [2], 195 µM.

As to `O=C(COC(=O)c1cccs1)c1ccc[nH]1`, the IC50 is 211 µM in test [1] and 429 µM in test [2].

Turning to `O=C(NCC1(CO)CC1)OCc1ccccc1`, the IC50 in test [1] and in test [2] was 149 µM in each case.

For the molecule `CN(CCCN)c1ccccc1F`, the IC50 in test [1] is 129 µM; in test [2], 86.1 µM.

For `COC(=O)c1ccc(CCNC(=O)C2CCCO2)cc1` (centres undefined), the IC50 is 383 µM in test [1] and 281 µM in test [2].

Turning to `COc1ccc(-c2noc(C(C)n3ccnc3)n2)cn1` (centres undefined), the values for the IC50 in test [1] and in test [2] were 442 µM and 300 µM, respectively.

For the molecule `N#Cc1ccc(OCC(=O)Nc2ccccn2)cc1`, the IC50 was more than 501 µM in test [1] and 247 µM in test [2].

`CCC(c1nnc(SCC(=O)NCC(C)C)o1)N(C)C` (centres undefined): the IC50 was 192 µM in test [1] and 217 µM in test [2].

`CCS(=O)(=O)N(C)CCCNc1ccc(Cl)cn1`: the IC50 in test [1] is 163 µM; in test [2], 129 µM.
